US20260174875A1 (Novo Nordisk A/S, priority 2023, published 2026)
Like-named read-outs stand apart in the source and are kept apart here. Marks after values point to notes of the source that are not given here. Numbered stars: 1 amine (or outer) side, 2 acyl side, 3 side chain; on linkers, the order of the positions; unused ones are H or OH. Square brackets hold non-standard residues; d marks the D form. Side chains are listed from the residue outwards. * marks the point of attachment. C20 diacid = O=C(O)CCCCCCCCCCCCCCCCCCC(=O)*; C18 diacid = O=C(O)CCCCCCCCCCCCCCCCC(=O)*; C16 diacid = O=C(O)CCCCCCCCCCCCCCC(=O)*; γGlu = O=C(O)[C@H](CCC(=O)[*:2])N[*:1]; AEEA = NCCOCCOCC(=O)O; Aib = CC(C)(N)C(=O)O

Legend:
[1] = test system: Male Sprague Dawley (SD) rats; assay: Efficacy testing on appetite: acute food intake in ad libitum fed normal weight rats; type: in vivo, rat; conditions: for Food intake (relative to vehicle) Day 1: day 1 [0-24 hours]; for Food intake (relative to vehicle) Day 2: day 2 [24-48 hours]; for Food intake (relative to vehicle) Day 3: day 3 [48-72 hours]
From the text: Male Sprague Dawley (SD) rats from Taconic, Denmark were used for the acute food intake experiments, wherein the principles of laboratory animal care were followed.
The rats arrived at least 10-14 days before the start of the experiment to allow acclimatization to experimental settings. During this period, the animals were handled (fixation by restrain in neck skin) at least 2 times. Immediately upon arrival, rats were changed to a reversed light cycle (dark from 11 am-11 pm) and were transferred to an automated food intake measuring system (HM2 system, MBRose; Faaborg, Denmark). […] To enable recording of individual food intake, rats were ID chipped. Three rats were housed in each cage. During the acclimatization period, in which the rats get used to the new light cycle and diet (LF 10% (D12450B), from Research Diets Inc.), the animals had free access to food and water. Since rats are normally active and consume most of their daily calories during the dark period, rats were dosed in the morning right before lights were turned off. Such a set-up results in the lowest data variation and highest test sensitivity. […] In each cage there were animals from three different treatment groups (to eliminate potential cage effects (e.g. cage malfunction) on primary readout: food intake). The rats were dosed once subcutaneously (s.c.) with the peptide of interest according to body weight (10 or 30 nmol/kg) in vehicle (0.5 ml/kg) using a NovoPen® (Novo Nordisk, Bagsvæed, Denmark).
The compounds of the invention were formulated (20 or 60 nmol/ml) in the following vehicle: 8 mM phosphate; 250 mM glycerol; 0.007% polysorbate 20, pH 7.4.
After dosing, the rats were returned to their home cages, where they continued to have ad libitum access to chow and water. The food consumption was recorded individually and continuously by the HM2 system from 0-72 h after test compound administration. Data obtained by the HM-2 system were stored in a HMBase SQL database (Firebird® relational database management system) and were processed by HM2Lab software (MBRose; Faaborg, Denmark) installed in an embedded computer. The feeding system is a highly sensitive system with a load resolution of 0.001 g.

[2] = molecular target: T1, human amylin receptor (hAMYR3) (Homo sapiens, UniProt O60896+P30988); assay: Amylin receptor assay, method A (CRE-luciferase reporter, BHK cells); type: cell-based
T1 construct: host or cells: BHK cells (Hollex-1 line expressing hCTR(a) and CRE-Luc), further transfected with human RAMP3
T1 sequence (P30988 25-474): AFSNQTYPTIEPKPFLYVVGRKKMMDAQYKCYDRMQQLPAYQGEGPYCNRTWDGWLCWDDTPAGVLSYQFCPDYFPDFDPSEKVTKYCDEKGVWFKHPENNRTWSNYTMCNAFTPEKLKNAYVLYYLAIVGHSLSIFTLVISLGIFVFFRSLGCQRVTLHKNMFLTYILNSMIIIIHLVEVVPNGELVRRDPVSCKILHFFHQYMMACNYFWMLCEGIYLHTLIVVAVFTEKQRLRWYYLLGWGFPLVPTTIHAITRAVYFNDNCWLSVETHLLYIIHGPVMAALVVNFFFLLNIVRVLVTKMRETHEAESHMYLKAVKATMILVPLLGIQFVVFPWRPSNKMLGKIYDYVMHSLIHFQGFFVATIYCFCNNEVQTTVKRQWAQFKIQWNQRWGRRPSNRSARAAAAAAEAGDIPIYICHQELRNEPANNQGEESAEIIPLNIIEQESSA
T1 sequence (O60896 24-148): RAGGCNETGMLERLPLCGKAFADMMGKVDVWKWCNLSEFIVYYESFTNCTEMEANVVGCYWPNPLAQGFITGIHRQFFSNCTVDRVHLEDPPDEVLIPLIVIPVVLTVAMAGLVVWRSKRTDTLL

[3] = Chemical stability assessment in formulation (UPLC-UV-MS purity loss at 37° C.); type: physicochemical; conditions: 8 mM phosphate buffer pH 7.4, 1 mg/mL, 2 weeks
Method in brief: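 Degradation tracked by UPLC-UV-MS (formic acid/acetonitrile gradient) on samples drawn over 2 weeks at 37° C. Solutions were made at a 1 mg/mL target in 8 mM phosphate, pH 7.4, kept in sealed vials and frozen after sampling.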

[4] = hAMYR3 Potency, 1% HSA, EC50, method A, in the presence of 1% HSA
[5] = method A, absence of HSA, read-out: hAMYR3 Potency, no HSA, EC50

Row | Substance | EC50 [2, 4] [nM] | EC50 [2, 5] [nM] | Purity loss per week at 37° C. [3] [%] | Food intake (relative to vehicle) Day 1 ([1]; single dose 10 nmol/kg) | Food intake (relative to vehicle) Day 2 ([1]; single dose 10 nmol/kg) [%] | Food intake (relative to vehicle) Day 3 ([1]; single dose 10 nmol/kg) [%] | Food intake (relative to vehicle) Day 1 ([1]; single dose 30 nmol/kg) [%] | Food intake (relative to vehicle) Day 2 ([1]; single dose 30 nmol/kg) [%] | Food intake (relative to vehicle) Day 3 ([1]; single dose 30 nmol/kg) [%]
1 | Y[Aib]EGTFTSDYSILLEEQAAREFIEWLLAGGPSSGAPPPSGGGEASHLSTAQTQRLSAK([AEEA-AEEA-γGlu-C18 diacid])LHRLATLPRTETGSGSP-NH2 [Compound 109] | 0.032 | 0.00365 | – | −85% | −34 | −28 | – | – | –
2 | H[Aib]HGTFTSDYSILLEEQAAREFIEWLLAGGPSK([AEEA-AEEA-γGlu-C18 diacid])GEASHLSTAQTARLSAELHELATLPRTETGSGSP-NH2 [Compound 36] | 0.137 | 0.00384 | – | −44% | −45 | −3 | – | – | –
3 | Y[Aib]EGTFTSDYSILLEEQAAREFIEWLLAGGPSSGAGQAPGASHLSTAQTQRLSAELHK([AEEA-AEEA-γGlu-C18 diacid])LATLPRTETGSGSP-NH2 [Compound 97] | 0.132 | 0.00281 | – | −65% | −82 | −42 | – | – | –
4 | Y[Aib]EGTFTSDYSILLEEQAAREFIEWLLAGGPSRGEASHLSTAQTQRLSAELHK([AEEA-AEEA-γGlu-C18 diacid])LATLPRTETGSGSP-NH2 [compound 68] | 0.23 | 0.00257 | – | – | – | – | – | – | –
5 | H[Aib]HGTFTSDYSILLEEQAAREFIEWLLAGGPSK([AEEA-AEEA-γGlu-C20 diacid])GAPPPSGGGEASELSTAALGRLSAELHELATLPRTETGSGSP-NH2 [Compound 16] | 0.166 | 0.0057 | – | −17% | −11 | −10 | −39 | −22 | −17
6 | Y[Aib]EGTFTSDYSILLEEQAAREFIEWLLAGGPSSGAPPPSGGGEASHLSTAQTQRLSAK([AEEA-AEEA-γGlu-C20 diacid])LHRLATLPRTETGSGSP-NH2 [Compound 110] | 0.094 | 0.00327 | – | −75% | −54 | −23 | – | – | –
7 | Y[Aib]EGTFTSDYSILLEEQAAREFIEWLLAGGPSK([AEEA-AEEA-γGlu-C18 diacid])GEASELSTAALGRLSAELHELATLPRTETGSGSP-NH2 [Compound 26] | 0.349 | 0.0118 | – | – | – | – | −11 | −18 | 0
8 | Y[Aib]EGTFTSDYSILLEEQAAREFIEWLLAGGPSSGAGQAPGQAPGASHLSTAQTQRLSAELHK([AEEA-AEEA-γGlu-C20 diacid])LATLPRTETGSGSP-NH2 [Compound 115] | – | – | 1.1 | −44.5% | −76.5 | −38 | – | – | –
9 | Y[Aib]EGTFTSDYSILLEEQAAREFIEWLLAGGPSSGAGQAPGQAPLASHLSTAQTQRLSAELHK([AEEA-AEEA-γGlu-C18 diacid])LATLPRTETGSGSP-NH2 [compound 58] | 0.134 | 0.00291 | – | – | – | – | – | – | –
10 | Y[Aib]EGTFTSDYSILLEEQAAREFIEWLLAGGPSK([AEEA-AEEA-γGlu-C16 diacid])GEASELSTAALGRLSAELHELATLPRTETGSGSP-NH2 [Compound 11] | 0.211 | 0.0128 | – | – | – | – | −46 | −45 | −27
11 | Y[Aib]EGTFTSDYSILLEEQAAREFIEWLLAGGPSK([AEEA-AEEA-γGlu-C18 diacid])GGQAPGQAPGEASHLSTAQTQRLSAELHELATLPRTETGSGSP-NH2 [Compound 38] | 0.172 | 0.00363 | – | −3% | −19 | 1 | – | – | –
12 | Y[Aib]EGTFTSDYSILLEEQAAREFIEWLLAGGPSK([AEEA-AEEA-γGlu-C16 diacid])GAPPPSGGGEASELSTAALGRLSAELHELATLPRTETGSGSP-NH2 [compound 10] | 0.175 | 0.0068 | – | −20* % | −4 | −4 | – | – | –

Second part, led by results:

Row | EC50 [2, 4] [nM] | EC50 [2, 5] [nM] | Purity loss per week at 37° C. [3] [%] | Substance | Food intake (relative to vehicle) Day 1 ([1]; single dose 10 nmol/kg) | Food intake (relative to vehicle) Day 2 ([1]; single dose 10 nmol/kg) [%] | Food intake (relative to vehicle) Day 3 ([1]; single dose 10 nmol/kg) [%] | Food intake (relative to vehicle) Day 1 ([1]; single dose 30 nmol/kg) [%] | Food intake (relative to vehicle) Day 2 ([1]; single dose 30 nmol/kg) [%] | Food intake (relative to vehicle) Day 3 ([1]; single dose 30 nmol/kg) [%]
13 | 0.0534 | 0.00353 | 1.3 | Y[Aib]EGTFTSDYSILLEEQAAREFIEWLLAGGPSSGEASHLSTAQTQRLSAK([AEEA-AEEA-γGlu-C18 diacid])LHRLATLPRTETGSGSP-NH2 [Compound 79] | −70% | −54 | −5 | – | – | –
14 | 0.0759 | 0.00322 | 0.8 | Y[Aib]EGTFTSDYSILLEEQAAREFIEWLLAGGPSSGAGQAPGQAPGASHLSTAALGRLSAELHK([AEEA-AEEA-γGlu-C18 diacid])LATLPRTETGSGSP-NH2 [Compound 53] | −75% | −90 | −33 | – | – | –
15 | 0.038 | 0.00326 | – | H[Aib]HGTFTSDYSILLEEQAAREFIEWLLAGGPSSGEASHLSTAQTQRLSAK([AEEA-AEEA-γGlu-C18 diacid])LHRLATLPRTETGSGSP-NH2 [Compound 82] | −94% | −73 | −27 | – | – | –
16 | 0.0955 | 0.00308 | – | H[Aib]HGTFTSDYSILLEEQAAREFIEWLLAGGPSK([AEEA-AEEA-γGlu-C18 diacid])GAPPPSGGGEASHLSTAQTARLSAELHQLATLPRTETGSGSP-NH2 [compound 101] | – | – | – | – | – | –
17 | 0.0397 | 0.00312 | – | H[Aib]HGTFTSDYSILLEEQAAREFIEWLLAGGPSSGEASHLSTAALGRLSAELHRLK([AEEA-AEEA-γGlu-C18 diacid])TLPRTETGSGSP-NH2 [Compound 89] | −93% | −78 | −28 | – | – | –
18 | 0.0789 | 0.00343 | – | H[Aib]HGTFTSDYSILLEEQAAREFIEWLLAGGPSRGEASHLSTAQTQRLSAELHK([AEEA-AEEA-γGlu-C18 diacid])LATLPRTETGSGSP-NH2 [Compound 69] | −81% | −68 | −6 | – | – | –
19 | 0.119 | 0.00285 | – | Y[Aib]EGTFTSDYSILLEEQAAREFIEWLLAGGPSSGAGQAPGQAPGASHLSTAQTQRLSAELHK([AEEA-AEEA-γGlu-C18 diacid])LATLPRTETGSGSP-NH2 [compound 52] | – | – | – | – | – | –
20 | 0.034 | 0.00222 | – | Y[Aib]EGTFTSDYSILLEEQAAREFIEWLLAGGPSSGAGQAPGQAPGASHLSTAQTQRLSAK([AEEA-AEEA-γGlu-C18 diacid])LHRLATLPRTETGSGSP-NH2 [compound 55] | – | – | – | – | – | –
21 | 0.0365 | 0.00499 | – | H[Aib]HGTFTSDYSILLEEQAAREFIEWLLAGGPSSGEASHLSTAALGRLSAK([AEEA-AEEA-γGlu-C18 diacid])LHRLATLPRTETGSGSP-NH2 [Compound 87] | −91% | −86 | −24 | – | – | –
22 | 0.0334 | 0.00221 | – | H[Aib]HGTFTSDYSILLEEQAAREFIEWLLAGGPSK([AEEA-AEEA-γGlu-C18 diacid])GAPPPSGGGGASELSTAALGRLSAELHRLATLPRTETGSGSP-NH2 [Compound 14] | −78% | −85 | −32 | – | – | –
23 | 0.109 | 0.00191 | 3.3 | H[Aib]HGTFTSDYSILLEEQAAREFIEWLLAGGPSK([AEEA-AEEA-γGlu-C18 diacid])GEASQLSTAALGRLSAELHQLATLPRTETGSGSP-NH2 [Compound 64] | – | – | – | – | – | –
24 | 0.129 | 0.00282 | – | Y[Aib]EGTFTSDYSILLEEQAAREFIEWLLAGGPSSGALQAPGQAPLASHLSTAQTQRLSAELHK([AEEA-AEEA-γGlu-C20 diacid])LATLPRTETGSGSP-NH2 [Compound 99] | −69% | −84 | −46 | – | – | –
